Data taken from publication PMC6150242, “Design, Synthesis and Anticancer Evaluation of Fangchinoline Derivatives” (Molecules : A Journal of Synthetic Chemistry and Natural …, 2017).
Where two headings read alike, the source gives them in different places.

Columns and labels:
[1] = tested on: human leukaemia HEL cell line; assay: MTT in vitro cytotoxicity assay, HEL; format: cell-based; settings: read-out: IC50 (µM) HEL
Protocol: (§1) As summarized in Table 1, five cancer cell lines, including MDA-MB-231, PC3, WM9, HEL and K562 cell lines, were induced for testing the anti-cancer activities of those derivatives. The first line anti-cancer drug, vincristine, was treated as positive control. All the test compounds were dissolved in DMSO. The preliminary structure-activity relationship of all compounds against the 5 cancer cell lines was also investigated.
(§2) Human erythroleukemic cell lines HEL and K562, human breast cell lines MDA-MB-231, human prostate cell lines PC3 and human melanoma cell lines WM9 were cultured in RPMI (HEL and K562) or DMEM (MDA-MB-231, PC3, WM9) medium (high glucose) supplemented with 5% FBS (HyClone, GE Healthcare, Parramatta, Australia) and 1% ampicillin/streptomycin.
(§3) Cells were cultured in 96-well plates at densities of 1 × 10^5/well. The plates were pre-incubated at 37 °C for 24 h to allow adaptation of cells prior to the addition of the test compounds. Then, compounds were added to cells in triplicate in several doses, and incubated for an additional 2 days. The 50% inhibitory concentrations (IC50) were measured for fangchinoline derivatives using MTT (diphenyltetrazolium bromide) assay.

[2] = tested on: human breast cancer MDA-MB-231 cell line; assay: MTT in vitro cytotoxicity assay, MDA-MB-231; format: cell-based; settings: read-out: IC50 (µM) MDA-MB-231
Protocol: as §1, §2, §3

[3] = tested on: human prostate cancer PC3 cell line; assay: MTT in vitro cytotoxicity assay, PC3; format: cell-based; settings: read-out: IC50 (µM) PC3
Protocol: as §1, §2, §3

[4] = tested on: human leukaemia K562 cell line; assay: MTT in vitro cytotoxicity assay, K562; format: cell-based; settings: read-out: IC50 (µM) K562
Protocol: as §1, §2, §3

[5] = tested on: human melanoma WM9 cell line; assay: MTT in vitro cytotoxicity assay, WM9; format: cell-based; settings: for IC50: Homo sapiens, read-out: IC50 (µM) WM9
Protocol: as §1, §2, §3

[6] = Toxicity on normal human liver cell line; format: cell-based; settings: HL7702 normal liver cells; normal human liver cell line HL7702; read-out: IC50 against HL7702 cell growth
Protocol: (§4) 3 fangchinoline derivatives were also tested for their toxicities on normal human liver cell line HL7702.
as §3

[7] = tested on: normal human liver cell line HL7702; assay: Toxicity on normal human liver cell line; format: cell-based; settings: HL7702 versus cancer cell lines
Protocol: as §4, §3

Bcl-2 = assay: Western blot of apoptosis indicators, Bcl-2; format: cell-based, human; settings: WM9 cells, 2.5 µM, 24 h
Protocol: (§5) Western blot analysis was induced to elucidate the effect of compound 4g on protein levels to further expatiate how compound 4g induces apoptosis in WM9 cells (Figure 3). The Bcl-xl, Bcl-2 and Survivin display repressor activities in cell death.
(§6) The total protein was collected from WM9 cells using RIPA lysis buffer, and separated on 10% SDS Page, as described. The protein was then transferred to polyvinylidene fluoride (PVDF, 0.2 µm) membrane, and blocked by 5% BSA solution for 2 h at room temperature. The membrane was then incubated with specific primary antibodies overnight at 4 °C, followed by incubation with corresponding HRP-conjugated secondary antibodies for 2 h at room temperature. Expression of particular proteins was measured by applying ECL select substrate (Li-Cor, Lincoln, NE, USA). Polyclonal rabbit antibody for Bcl-2 was obtained from Abcam (Abcam, Cambridge, UK); Bcl-xl, Survivin, Casepase-3 and PARP antibodies from Cell Signalling Technology (CST, Danvers, MA, USA) and GAPDH from Goodhere Biotechnology (Hangzhou, Zhejiang, China).
(§7) Figure 3 Fangchinoline derivative 4g affects the protein levels of the apoptotic genes in WM9 cell line. […] WM9 cells were treated with 2.5 μM 4g for 24 h.

PARP = assay: Western blot of apoptosis indicators, PARP; format: cell-based, human; settings: WM9 cells, 2.5 µM, 24 h
Protocol: as §5, §6, §7

Survivin = assay: Western blot of apoptosis indicators, Survivin; format: cell-based, human; settings: WM9 cells, 2.5 µM, 24 h
Protocol: as §5, §6, §7

WM9 cells = assay: Annexin V-FITC/PI flow cytometry apoptosis assay; format: cell-based, human; settings: 2.5 µM, 24 h
Protocol: The Annexin V-FITC-A/PI apoptosis detection kit was induced to test the further role of compound 4g in inhibiting WM9 cell death (Figure 2). Before undergoing the flow cytometry, the WM9 cells were treated with 0 and 2.5 µM compound 4g for 24 h, and then Annexin V-FITC and PI were put into use.
For apoptosis analysis, WM9 cells were incubated with compounds or DMSO as a vehicle control for 24 h. Cells were then washed with cold PBS, stained with Annexin V-FITC and Propidium Iodide (PI) using apoptosis detection Kit (BD Biosciences, Bergen, NJ, USA).
Figure 2 Compound 4g induced apoptosis in WM9 cells. WM9 cells were stained with Annexin V-FITC and PI by incubating at room temperature for 15 min after treated cells with 2.5 µM 4g for 24 h. Finally, apoptosis analysis was carried out by flow cytometry. TEXT PRINTED IN THE PICTURE: Y-37: WM9 24h: Q4-UL 1.2% (2.5 μM); WM9 24h: Q4-UR 8.8% (2.5 μM); WM9 24h: Q4-LL 74.2% (2.5 μM); WM9 24h: Q4-LR 15.8% (2.5 μM) DOUBTS OF THE COPYIST ABOUT THIS PICTURE: Y-37, Q4-UR: 8.8% or 6.8%; the first digit is partly hidden by plotted points / The Control plot also prints quadrant percentages (Q4-UL 0.7%, Q4-UR 0.0%, Q4-LL 98.9%, Q4-LR 0.3%). They are not listed because Control is not a substance.

Bcl-xl = assay: Western blot of apoptosis indicators, Bcl-xl; format: cell-based, human; settings: WM9 cells, 2.5 µM, 24 h
Protocol: as §5, §6, §7

Caspase-3 = assay: Western blot of apoptosis indicators, Caspase-3; format: cell-based, human; settings: WM9 cells, 2.5 µM, 24 h
Protocol: as §5, §6, §7

[8] = tested on: human hepatocellular carcinoma cell line PLC/PRF/5; set-up: method as in PMID 21418191; settings: autophagy induction at relatively low concentrations; cited from earlier work
[9] = tested on: human hepatocellular carcinoma cell line HepG2; set-up: method as in PMID 21418191; settings: autophagy induction at relatively low concentrations; cited from earlier work
[10] = MTT assay after 48 h of treatment, averaged from at least 3 independent experiments, variation ±10%
[11] = MDA-MB-231, MTT assay after 48 h of treatment, averaged from at least 3 independent experiments, variation ±10%
[12] = PC-3, MTT assay after 48 h of treatment, averaged from at least 3 independent experiments, variation ±10%
[13] = K562, MTT assay after 48 h of treatment, averaged from at least 3 independent experiments, variation ±10%
[14] = WM9, MTT assay after 48 h of treatment, averaged from at least 3 independent experiments, variation ±10%

Compound | IC50 [1, 10] [µM] | IC50 [2, 11] [µM] | IC50 [3, 12] [µM] | IC50 [4, 13] [µM] | IC50 [5, 14] [µM] | also measured
COc1ccc2cc1Oc1ccc(cc1)C[C@H]1c3cc(c(OC)cc3CCN1C)Oc1c(OCc3ccccc3)c(OC)cc3c1[C@H](C2)N(C)CC3 [Compound 1a, 7-O-Benzyl-fangchinoline] | 4.42 | 5.13 | 3.65 | 4.75 | 3.44 | –
COc1ccc2cc1Oc1ccc(cc1)C[C@H]1c3cc(c(OC)cc3CCN1C)Oc1c(OCC=C(C)C)c(OC)cc3c1[C@H](C2)N(C)CC3 [Compound 1b, 7-O-(3-Methylbut-1-ene)-fangchinoline] | 4.01 | 4.44 | 7.22 | 6.6 | 5.56 | –
C=CCOc1c(OC)cc2c3c1Oc1cc4c(cc1OC)CCN(C)[C@H]4Cc1ccc(cc1)Oc1cc(ccc1OC)C[C@@H]3N(C)CC2 [Compound 1c, 7-O-(Prop-1-ene)-fangchinoline] | 4.72 | 5.04 | 4.75 | 6.78 | 3.05 | –
COc1cc([N+](=O)[O-])c2cc1Oc1ccc(cc1)C[C@H]1c3cc(c(OC)cc3CCN1C)Oc1c(OCc3ccccc3)c(OC)cc3c1[C@H](C2)N(C)CC3 [Compound 2a, 7-Benzyl-14-nitro-fangchinoline] | 8.96 | 8.6 | 3.69 | 8.33 | 3.04 | IC50 at 2 days [6]: 5.6 µM
COc1ccc2cc1Oc1ccc(cc1)C[C@H]1c3cc(c(OC)cc3CCN1C)Oc1c(OC(C)=O)c(OC)cc3c1[C@H](C2)N(C)CC3 [Compound 3a, 7-O-Acetyl-fangchinoline] | 2.75 | 6.67 | 3.01 | 6.99 | 2.65 | –
COc1ccc2cc1Oc1ccc(cc1)C[C@H]1c3cc(c(OC)cc3CCN1C)Oc1c(OS(=O)(=O)c3ccc(C)cc3)c(OC)cc3c1[C@H](C2)N(C)CC3 [Compound 3b, 7-O-Tosyl-fangchinoline] | 2.95 | 4.61 | 3.59 | 3.85 | 3.95 | –
COc1ccc2cc1Oc1ccc(cc1)C[C@H]1c3cc(c(OC)cc3CCN1C)Oc1c(OS(=O)(=O)c3ccccc3[N+](=O)[O-])c(OC)cc3c1[C@H](C2)N(C)CC3 [Compound 3c, 7-O-(o-Nirtobenzessulfonyl)-fangchinoline] | 6.82 | 8.7 | 4.76 | 4.06 | 3.58 | –
COc1ccc2cc1Oc1ccc(cc1)C[C@H]1c3cc(c(OC)cc3CCN1C)Oc1c(OC(=O)c3ccco3)c(OC)cc3c1[C@H](C2)N(C)CC3 [Compound 3g, 7-O-(Furan-m-formyl)-fangchinoline] | 4.04 | 6.02 | 4.33 | 6.39 | 3.13 | IC50 at 2 days [6]: 17.3 µM; fold lower toxicity on HL7702 than inhibition on cancer cell lines [7]: ~3 fold
COc1ccc2cc1Oc1ccc(cc1)C[C@H]1c3cc(c(OC)cc3CCN1C)Oc1c(OC(=O)c3ccccc3)c(OC)cc3c1[C@H](C2)N(C)CC3 [Compound 3i, 7-O-Benzoyl-fangchinoline] | 2.04 | 3.46 | 4.57 | 2.86 | 2.73 | –
COc1cc(Br)c2cc1Oc1ccc(cc1)C[C@H]1c3cc(c(OC)cc3CCN1C)Oc1c(OC(=O)c3ccccc3)c(OC)c(Br)c3c1[C@H](C2)N(C)CC3 [Compound 4a, 7-O-Benzoyl-5,14-dibromo-fangchinoline] | 2.65 | 4.12 | 4.22 | 2.45 | 2.51 | –
COc1cc(Cl)c2cc1Oc1ccc(cc1)C[C@H]1c3cc(c(OC)cc3CCN1C)Oc1c(OC(=O)c3ccccc3)c(OC)c(Cl)c3c1[C@H](C2)N(C)CC3 [Compound 4b, 7-O-Benzoyl-5,14-dichloro-fangchinoline] | 5.11 | 7.22 | 3.85 | 3.16 | 3.54 | –
COc1cc([N+](=O)[O-])c2cc1Oc1ccc(cc1)C[C@H]1c3cc(c(OC)cc3CCN1C)Oc1c(OC(=O)c3ccccc3)c(OC)cc3c1[C@H](C2)N(C)CC3 [Compound 4g, 7-O-Benzoyl-14-nitro-fangchinoline] | 1.98 | 2.92 | 2.03 | 2.09 | 1.07 | Bcl-2 expression (Western blot) (Bcl-2): inhibited; full-length PARP level (Western blot) (PARP): down-regulation of full-length PARP; Survivin expression (Western blot) (Survivin): inhibited; WM9 cells in the early apoptosis state (WM9 cells; control 0.0%): 8.8%; WM9 cells in the late apoptosis state (WM9 cells; control 0.3%): 15.8%; IC50 at 2 days [6]: 5 µM; fold lower toxicity on HL7702 than inhibition on cancer cell lines [7]: ~5 fold; Bcl-xl expression (Western blot) (Bcl-xl): inhibited; times more active than first stage derivative 3i on WM9 ([5]; WM9 IC50 ratio versus 3i): 2.5 times; times more active than fangchinoline on WM9 ([5]; WM9 IC50 ratio versus fangchinoline): 12.2 times; times more active than vincristine on WM9 ([5]; WM9 IC50 ratio versus vincristine): 9.8 times; Pro-Caspase-3 / Cleaved-Caspase-3 (Western blot) (Caspase-3): activation of executioner from Pro-Caspase-3 to Cleaved-Caspase-3
COc1ccc2cc1Oc1ccc(cc1)C[C@H]1c3cc(c(OC)cc3CCN1C)Oc1c(O)c(OC)cc3c1[C@H](C2)N(C)CC3 [Fangchinoline] | – | – | – | – | – | IC50 ([1]; 48 h): 8.95 µM; IC50 ([2]; MDA-MB-231, 48 h): 12.3 µM; IC50 ([3]; PC-3, 48 h): 11.1 µM; IC50 [8]: ~5 µM; IC50 ([4]; K562, 48 h): 10.3 µM; IC50 ([5]; WM9, 48 h): 13.1 µM; IC50 [9]: ~5 µM
CC[C@]1(O)C[C@H]2CN(CCc3c([nH]c4ccccc34)[C@@](C(=O)OC)(c3cc4c(cc3OC)N(C=O)[C@H]3[C@@](O)(C(=O)OC)[C@H](OC(C)=O)[C@]5(CC)C=CCN6CC[C@]43[C@@H]65)C2)C1 [Vincristine, reference compound] | 6.38 | 13.1 | 5.36 | 5.62 | 10.6 | –
